The values that follow come from US20050026827A1, “Octapeptide bombesin analogs” (Societe de Conseils de Recherches et d'Applications …, priority 1987, published 2005).

Read-outs that look alike come from different tables or passages of the source. Non-standard residues stand in square brackets, D forms with d. Residues, ends and D or L forms follow the SMILES beside them. *: point of attachment. X1 = CC(C)C[C@H](NC[C@H](Cc1ccccc1)N*)C(N)=O; X2 = CC(C)C[C@@H](CN[C@@H](CC(C)C)C(N)=O)N*; Sta = CC(C)C[C@H](N)[C@@H](O)CC(=O)O; pGlu = O=C1CC[C@@H](C(=O)O)N1 A value given as a limit tells only on which side of the number the result lay.

For data set [1], the target named is T1, 3T3 fibroblast bombesin receptors (3T3 GRP receptor) (Mus musculus, UniProt P21729).
T1 construct: Membranes from various tissues (rat brain, rat pancreas, rat anterior pituitary, SCLC, 3T3 cells) are prepared by homogenization; endogenous in cells; host or cells: 3T3 fibroblasts (membrane preparation)
Description: In vitro inhibition of [125I]GRP binding to 3T3 fibroblast bombesin receptors. The following applies: for activity in the 3T3 GRP receptor binding assay (in words): Table 1. More on the design: species or system murine. How it is done:
Phase 4—In Vitro Inhibition of [^125I] Gastrin Releasing Peptide (GRP) Binding to Bombesin Receptors
Membranes from various tissues (rat brain, rat pancreas, rat anterior pituitary, SCLC, 3T3 cells) are prepared by homogenization in 50 mM TrisHCl containing 0.1% bovine serum albumin and 0.1 mg/ml bacitracin followed by two centrifugations (39,000×g×15 min., 4° C.) with an intermediate resuspension in-fresh buffer. For assay, aliquots […] are incubated with 0.5 nM [^125I]GRP (˜2000 Ci/mmol, Amersham Corp.) and various concentrations of the test compounds in a final volume of 0.5 ml. After a 30 minute incubation at 4° C., the binding reaction is terminated by rapid filtration through Whatman GF/C filters that have been pre-soaked in 0.3% aqueous polethyleneimine to reduce the level of nonspecific binding. The filters and tubes are washed three times with 4 ml aliquots of ice-cold buffer, and the radioactivity trapped on the filters is counted by gamma-spectrometry. Specific binding is defined as the total. [^125I]GRP bound minus that bound in the presence of 1000 nM. bombesin or a related peptide.
(§1) A number of analogs of bombesin or GRP, each containing a non-peptide bond or a statine, AHPPA, or ACHPA, β-amino acid, or γ-amino acid residue, can be synthesized and tested in one or more of the above-described Phase 1-7 assays; the results of Phase 1 and 2 tests are given in Table 1 attached hereto. […] (3T3 GRP receptor and thymidine uptake data are expressed in IC50 (nM).) Table 1 also gives results for non-peptide bond-containing analogs of one other naturally-occurring peptide, Neuromedin C, whose C-terminal seven amino acids are similar to those of bombesin and GRP. (In Table 1, “Litorin” indicates a 9 residue peptide analog or its derivative, whereas “Neuromedin C” indicates a 10 residue analog or its derivative.)

In data set [2] the target is swiss 3T3 cells (Mus musculus, UniProt P21729). Description: Bombesin-stimulated [3H]thymidine uptake by cultured 3T3 cells. Particulars: Table 1. It counts as cell-based, murine. How it is done:
Phase 1—3T3 Peptide Stimulated [^3H] Thymidine Uptake Assay
Cell Culture. Stock cultures of swiss 3T3 cells are grown in Dulbecco's Modified Eagles Medium (DMEM) supplemented with 10% fetal calf serum in humidified atmosphere of 10% CO2/90% air at 37° C. For experimental use, the cells are seeded into 24-well cluster trays and used four days after she last change of medium. The cells are arrested in the G1/G0 phase of the cell cycle by changing to serum-free DMEM 24 hours prior to the thymidine uptake assay.
Assay of DNA Synthesis. The cells are washed twice with 1 ml aliquots of DMEM (-serum) then incubated with DMEM (-serum), 0.5 μM [methyl-^3H] thymidine (20 Ci/mmole, New England Nuclear), bombesin (3 nM), and initially four concentrations of the test compounds (1, 10, 100, 1000 nM) in a final volume of 1.0 ml. After 28 hours at 37° C., [methyl-^3H] thymidine incorporation into acid-insoluble pools is assayed as follows. The cells are washed twice with ice-cold 0.9% NaCl (1 ml aliquots), and acid soluble radioactivity is removed by a 30 min. (4° C.) incubation with 5% trichloroacetic acid (TCA). The cultures are then washed once (1 ml) with 95% ethanol and solubilized by a 30 min. incubation (1 ml) with 0.1N NaOH. The solubilized material is transferred to vials containing 10 ml ScintA (Packard), and the radioactivity is determined by liquid scintillation spectrometry.
as §1

Data set [3] deals with NCI-H69 human SCLC. As to the kind of experiment: In vivo antitumor activity, NCI-H69 small cell lung carcinoma xenografts. The following applies: for Tumor Size Day 18 (mm) / % Test/Control (Day 18) / % Test/Control (Day 28) / Tumor Size Day 28 (mm): 50 μg/inj., b.i.d., QD1-28; for Tumor Size Day 18 (mm) / Tumor Size Day 28 (mm): mean ± SD. As to the method:
Phase 6—In Vivo Antitumor Activity
NCI-H69 small cell lung carcinoma cells were transplanted from in vitro culture by implanting each animal with the equivalent of 5 confluent 75 cm^2 tissue culture flasks in the right flank. In vitro NCI-H69 cells grow as a suspension of cellular aggregates. Therefore, no attempt was made to disaggregate the cell agglomerates by physical or chemical means. Tumor size was calculated as the average of two diameters, i.e., (length and width/2) mm.
(§2) These observations prompted us to evaluate the effect of BIM-26100 on the in vivo growth of the SCLC tumor cell line described in Phase 6. Twenty athymic nude females, 5 to 6 weeks of age, were implanted on day 0 with the NCI-H69 human SCLC, individually identified and then randomized into the following vehicle control and test groups:
(§3) Growth of NCI-H69 xenografts and the tumor growth inhibitory activity of the bombesin antagonist BIM-26100 (pGlu-Gln-Trp-Ala-Val-Gly-His-Pheψ[CH2NH]Leu-NH2) are illustrated as tumor growth curves in FIG. 1, and relative tumor sizes in Table 2. […] The effectiveness of the antitumor activity of BIM-26100 is evident in view of the large inoculum of NCI-H69 tumor cells (i.e. the equivalent of 5 confluent 75 cm^2 cell culture flasks per animal) and the agglomerated condition of the cells. In confluent flasks, NCI-H69 agglomerates are macroscopically visible and together resemble a metastatic tumor colony. Many such tumor colonies were implanted per animal. The dose of BIM-26100 […] and is not optimal. Higher doses of BIM-26100 may be administered, as indicated by body weight gain (minus tumor weight) gain during the course of treatment (Table 3).

Data set [4] in a line: Body weight (minus tumor weight) during BIM-26100 treatment of tumor-bearing animals. Particulars: for Body Weight(gm) Day 0 / Body Weight(gm) Day 18 / Body Weight(gm) Day 28: 50 μg/inj., b.i.d., QD1-28, tumor weight subtracted. In kind it is in vivo, athymic nude females.
Text: as §2, §3

In data set [5] the target is 3T3 fibroblast bombesin receptors (murine (3T3 murine fibroblasts)) (UniProt P21729).

T1 sequence (P21729 whole entry): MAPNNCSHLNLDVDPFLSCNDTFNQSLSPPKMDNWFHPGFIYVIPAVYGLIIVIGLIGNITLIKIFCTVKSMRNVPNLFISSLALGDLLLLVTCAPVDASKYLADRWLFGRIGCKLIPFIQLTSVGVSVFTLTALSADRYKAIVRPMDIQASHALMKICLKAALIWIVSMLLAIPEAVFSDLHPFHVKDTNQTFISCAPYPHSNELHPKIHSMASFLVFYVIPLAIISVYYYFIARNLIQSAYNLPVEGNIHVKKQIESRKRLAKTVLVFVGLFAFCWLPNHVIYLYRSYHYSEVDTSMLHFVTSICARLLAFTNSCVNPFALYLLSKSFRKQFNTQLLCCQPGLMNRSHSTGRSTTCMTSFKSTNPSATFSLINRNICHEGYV
Chain of swiss 3T3 cells (P21729 whole entry): as above

`CC(C)C[C@@H](CN[C@@H](CC(C)C)C(N)=O)NC(=O)[C@H](Cc1c[nH]cn1)NC(=O)CNC(=O)[C@@H](NC(=O)[C@H](C)NC(=O)[C@H](Cc1c[nH]c2ccccc12)NC(=O)[C@H](Cc1c[nH]cn1)NC(=O)[C@H](CC(N)=O)NC(=O)CN)C(C)C` [BIM-26092, Gly-Asn-His-Trp-Ala-Val-Gly-His-Leuψ[CH2NH]Leu-NH2] (H-GNHWAVGH-X2): the “activity in the 3T3 GRP receptor binding assay (in words)” value in data set [1] was “antagonists”. In addition, in data set [2], the “activity in the 3T3 thymidine uptake assay (in words)” value was “antagonists”.

For the compound `CC(C)C[C@@H](CN[C@@H](CC(C)C)C(N)=O)NC(=O)[C@H](Cc1c[nH]cn1)NC(=O)[C@@H](C)NC(=O)[C@@H](NC(=O)[C@H](C)NC(=O)[C@H](Cc1c[nH]c2ccccc12)NC(=O)[C@H](CCC(N)=O)NC(=O)[C@@H]1CCC(=O)N1)C(C)C` [BIM-26095, pGlu-Gln-Trp-Ala-Val-D-Ala-His-Leuψ[CH2NH]Leu-NH2] ([pGlu]QWAV[dA]H-X2), the IC50 in data set [1] (inhibition of [125I]GRP binding, 3T3 membranes, read-out: 3T3 GRP Receptor IC50) was found to be 2620 nM.

In the case of `CC(C)C[C@H](NC[C@H](Cc1ccccc1)NC(=O)[C@H](Cc1c[nH]cn1)NC(=O)CNC(=O)[C@@H](NC(=O)[C@H](C)NC(=O)[C@H](Cc1c[nH]c2ccccc12)NC(=O)[C@H](CCC(N)=O)NC(=O)[C@@H]1CCC(=O)N1)C(C)C)C(N)=O` [BIM-26100, pGlu-Gln-Trp-Ala-Val-Gly-His-Pheψ[CH2NH]Leu-NH2] ([pGlu]QWAVGH-X1), the “Tumor Size Day 18 (mm)” value in data set [3] (s.c. inf. (infused around tumor)) came to 7.6 ± 1.56 mm. In addition, in data set [3] (s.c. inf.), the “% Test/Control (Day 18)” value was 70%, the “% Test/Control (Day 28)” value is reported as 86% and the “Tumor Size Day 28 (mm)” value is 13.7 ± 0.67 mm. Besides, in data set [3] (s.c.), the “% Test/Control (Day 18)” value came to 93%, the “Tumor Size Day 18 (mm)” value was found to be 10.1 ± 1.47 mm, the “% Test/Control (Day 28)” value was found to be 108% and the “Tumor Size Day 28 (mm)” value is reported as 17.3 ± 1.96 mm. The “tumor growth inhibitory activity (in words)” value in data set [3] (s.c. infusion around the tumor) is reported as “significantly inhibited tumor growth”. In data set [1], the “activity in the 3T3 GRP receptor binding assay (in words)” value is recorded as “most active”. In data set [4] (s.c. inf.), the “Body Weight(gm) Day 0” value is reported as 17.7 gm, the “Body Weight(gm) Day 18” value stood at 20.4 gm and the “Body Weight(gm) Day 28” value came to 21.1 gm. In data set [4] (s.c.), the “Body Weight(gm) Day 0” value was determined as 16.9 gm, the “Body Weight(gm) Day 18” value stood at 19.2 gm and the “Body Weight(gm) Day 28” value turned out to be 19.1 gm. Besides, in data set [4] (judged from body weight gain during treatment), the “local or systemic toxicity (in words)” value is on record as “completely lacks local or systemic toxicity”.

With `CC(C)C[C@@H](CN[C@@H](CC(C)C)C(N)=O)NC(=O)[C@H](Cc1c[nH]cn1)NC(=O)CNC(=O)[C@@H](NC(=O)[C@H](C)NC(=O)[C@H](Cc1c[nH]c2ccccc12)NC(=O)[C@H](CCC(N)=O)NC(=O)[C@@H]1CCC(=O)N1)C(C)C` [BIM-26101, pGlu-Gln-Trp-Ala-Val-Gly-His-Leuψ[CH2NH]Leu-NH2] ([pGlu]QWAVGH-X2), the “activity in the 3T3 GRP receptor binding assay (in words)” value in data set [1] was “most active”.

As for `CC(C)C[C@@H](CN[C@@H](CC(C)C)C(N)=O)NC(=O)[C@H](Cc1c[nH]cn1)NC(=O)CNC(=O)[C@@H](NC(=O)[C@H](C)NC(=O)[C@H](Cc1c[nH]c2ccccc12)NC(=O)[C@H](CCC(N)=O)NC(=O)[C@H](N)Cc1ccccc1)C(C)C` [BIM-26113, D-Phe-Gln-Trp-Ala-Val-Gly-His-Leuψ[CH2NH]Leu-NH2], in data set [1], the concentration for half-maximal inhibition (IC50) turned out to be 5.8 nM and the “activity in the 3T3 GRP receptor binding assay (in words)” value is recorded as “active”.

For the compound `CC(C)C[C@H](NC(=O)[C@H](Cc1c[nH]cn1)NC(=O)CNC(=O)[C@@H](NC(=O)[C@H](C)NC(=O)[C@H](Cc1c[nH]c2ccccc12)NC(=O)[C@H](CCC(N)=O)NC(=O)[C@@H]1CCC(=O)N1)C(C)C)[C@@H](O)CC(N)=O` [BIM-26120, pGlu-Gln-Trp-Ala-Val-Gly-His-Sta-NH2] ([pGlu]QWAVGH[Sta]-NH2), the “activity in the 3T3 thymidine uptake assay (in words)” value in data set [2] was “potent antagonists”.

In the case of “BIM-26095, pGlu-Gln-Trp-Ala-Val-D-Ala-His-Leuψ[CH2NH]Leu-NH2 (Litorin analog) (peptide)”, the bombesin-stimulated [3H]Thymidine uptake, IC50 in data set [5] is 1210 nM.

In data set [5], “BIM-26105, D-Ala-Asn-His-Trp-Ala-Val-D-ALa-His-Leuψ[CH2CH]Leu-NH2 (Neuromedin C analog) (peptide)” yielded a bombesin-stimulated [3H]Thymidine uptake, IC50 of 107 nM.

In turn, “BIM-26106, desGly-D-Ala-His-Trp-Ala-Val-D-ALa-His-Leuψ[CH2CH]Leu-NH2 (Neuromedin C analog) (peptide)” returned a bombesin-stimulated [3H]Thymidine uptake, IC50 in data set [5] of 354 nM.

As to “BIM-26107, D-Phe-His-Trp-Ala-Val-Gly-His-Leuψ[CH2NH]Leu-NH2 (Neuromedin C analog) (peptide)”, the bombesin-stimulated [3H]Thymidine uptake, IC50 in data set [5] is 154 nM.

In turn, “BIM-26108, N-Ac-D-Ala-His-Trp-Ala-Val-Gly-His-Leuψ[CH2NH]Leu-NH2 (GRP (19-27) analog) (peptide)” yielded a bombesin-stimulated [3H]Thymidine uptake, IC50 in data set [5] greater than 1000 nM.

Turning to “BIM-26113, D-Phe-Gln-Trp-Ala-Val-Gly-His-Leuψ[CH2NH]Leu-NH2 (Litorin analog) (peptide)”, the bombesin-stimulated [3H]Thymidine uptake, IC50 in data set [5] was 9 nM.

The compound “BIM-26122, D-Phe-Gln-Trp-Ala-Val-Gly-His-Leu-NH2 (Litorin analog) (peptide)” displayed a bombesin-stimulated [3H]Thymidine uptake, IC50 in data set [5] of 28.6 nM.

Broadly, the IC50 is the midpoint of a concentration-inhibition curve.
